Legend:
GSK3b = target: T1, GSK3b (Homo sapiens, UniProt P49841); test: Western blot of GSK3b phosphorylation at S-9 in Panc1 cells; assay type: cell-based; details: 10 μM BCN057, over time
T1 construct: endogenous in cells; host or cells: Panc-1
Procedure: Western Blot: Cells were harvested and lysed in cell lysis buffer on ice for 15 minutes and the lysate was centrifuged at 13,000 rpm at 4° C. for 10 minutes. The supernatant was transferred into a new tube for BCA protein quantification assay (Thermo Fisher Scientific) and the samples were normalized. 3× loading buffer (Cell Signaling) was added the protein sample and boiled for 5 minutes. The samples were used for SDS-PAGE analysis and transferred to nitrocellulose membrane. The membrane was blocked with 5% BSA at room temperature for 1 hour and incubated with primary antibody at 4° C. overnight. The membrane was washed with 1×TBST 5 minutes for 3 times and incubated with horseradish peroxidase-conjugated secondary antibody for 1 hour at room temperature. The protein was visualized by SuperSignal West Pico Stable Peroxide Solution (Thermo Fisher Scientific). The blot was visualized by chemiluminescence using a BioRad Versadoc Imaging System.
(§1) To investigate the role BCN057 may have in the restoration of apoptosis in this cell line, the GSK3b-c-Jun relationship was assessed as it has been directly linked to apoptosis. Others have reported a link with GSK3b and c-Jun and apoptosis along with the fact that […] is over expressed in the oncogenic KRAS phenotype.

[1] = target: T2, GSK3b in non-transformed cell types such as HEK298 (Homo sapiens, UniProt P49841); test: GSK3b inhibition in non-transformed cells; assay type: cell-based
T2 construct: endogenous in cells; host or cells: HEK298 (so in the source)
T2 sequence (P49841 whole entry): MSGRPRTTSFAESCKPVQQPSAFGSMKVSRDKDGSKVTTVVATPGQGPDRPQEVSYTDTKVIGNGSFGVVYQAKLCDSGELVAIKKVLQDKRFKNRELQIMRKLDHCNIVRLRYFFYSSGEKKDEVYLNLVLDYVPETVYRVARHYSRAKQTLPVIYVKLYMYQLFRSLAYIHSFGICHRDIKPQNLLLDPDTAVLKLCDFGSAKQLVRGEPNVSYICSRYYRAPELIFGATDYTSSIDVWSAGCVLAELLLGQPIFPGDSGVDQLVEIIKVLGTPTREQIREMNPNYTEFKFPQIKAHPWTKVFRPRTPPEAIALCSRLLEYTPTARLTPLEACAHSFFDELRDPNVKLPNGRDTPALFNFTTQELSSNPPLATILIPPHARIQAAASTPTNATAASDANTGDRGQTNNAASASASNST
Procedure: as §1

Panc-1 cells = test: ATPLite luminescence viability assay on Panc-1 cells; assay type: cell-based, human
Procedure: Viability Assay. To determine the effects of BCN 057 in comparison and combination with irinotecan, Oxaloplatin and 5Fu, the ATPLite Luminescence Assay System was used according to manufacturer's instructions. On day 1, 3,000 Panc-1 cells per well were seeded in 96-well white, opaque sterile tissue culture treated microplates and incubated for 24 hours in complete medium at 37° C., 5% CO2. On day 2, the media was exchanged with media containing various combinations of 10 uM BCN 057, 25 μM 5-Fu, 75 μM Oxaloplatin, and 50 μM Irinotecan and incubated at 37° C., 5% CO2. On day 3,4, and 5, the ATP Lite Assay was performed according to manufacturer's instructions for the 24, 48, and 72 hr timepoints. Unless otherwise stated, values were represented as a percent of the control which is the vehicle for each drug. No difference was found in viability between any control vehicle.
Statistics. The results are shown by calculating the averages (±Standard deviation) in comparison to untreated controls with the indicated (n). The Percent Viability was calculated by dividing the average of each condition by the average of the untreated control (vehicle). Statistical analysis was performed in excel.
The first example entailed studying the effect of BCN057 in pancreatic cancer cells. Panc-1 cells, a G12D KRAS mutant cell line was treated with BCN057 for 48 hours.
All data points are n=5. Control (ND) received no drug and BCN057 at 2, 5, 10, and 20 μM final concentration. The Percent viability was calculated by dividing the average value for each condition by the average value of the control cells (V) at each time point.
Further, these doses span the concentrations found in plasma during efficacy studies in rodents. Subsequently, microscope images appeared to show cell blebbing and fragmentation shortly after application of BCN057 indicating possible apoptosis. […] Blebbing and cell fragmentation was noted within 20 min of incubation with drug (as shown with the arrows). Cell fragmentation was seen between 20-30 minutes after exposure to the drug.
The anti-apoptotic phenotype of KRAS is associated with significant resistance to chemotherapy. Thus, to examine whether BCN057 enhances cytotoxic chemotherapeutic agents such as 5-Fluorouracil, also known as 5FU, Panc1 cells were pre-treated with 5FU as reported and incubated with BCN057. […] The effect followed a dose dependent response for BCN057 and was consistent over 24, 48 and 72 hrs after BN057 treatment (24 and 48 hrs not shown).
All data points are n=5. Control (ND) received no drugs. Study groups include 5FU (50 μM), 057 (BCN057 at 2, 5, 10, and 20 μM or 5FU+BCN057 (BCN057 at 2, 5, 10, and 20 μM in combination with 5FU at 50 μM). The Percent viability was calculated by dividing the average value for each condition by the average value of the control cells (V) with standard deviation at each time point
Combined chemotherapy and cytotoxicity: Other cytotoxic drugs commonly used in the treatment of pancreatic or colorectal cancer were then examined in similar fashion such as those within FOLFIRINOX such as 5FU, Irinotecan and Oxaliplatin in combination equivalent doses of BCN057 over 24, 48 and 72 hours.
FIG. 6 is a histogram showing the cytotoxicity of Oxaliplatin and Irinotecan, individually or in combination with 5FU and BCN057 on Panc-1 cells. Cells were incubated with Oxaliplatin, Irinotecan and 5FU with concentrations at 10 μM each and BCN057 (057) also at 10 μM with n=4 for all assays.

[2] = tested on: PDL-1 expression on Panc-1 cells; test: Western blot of PDL-1 on Panc-1 cells co-cultured with T-lymphocytes; assay type: cell-based, human; details: co-culture, 2.5, 5, 7.5 and 10 hrs
Procedure: Cell lines and cell culture: Panc-1 cells were cultured in DMEM medium supplemented with 10% Fetal Bovine Serum and maintained at 37° C.5% CO2. Human Peripheral Blood Pan-T Cells were cultured in serum free T cells expansion media with 10 ng/ml of rhIL-2, T-cell activator and expanded as per the manufacturer instructions. Panc-1 cells and T-Cells were grown and expanded separately in T75 flasks. For co-culture experiments with Panc-1 cell, 2.5 million T-cells per well were plated in the well using a 6 well plate. 2.5 million Panc-1 Cells were plated in the thinsert which was placed into the well of the 6 well plate in order to have the cells physically separated but share media. The cells were incubated for 24 hours at 37° C., 5% CO2. At 24 hours the media was replaced with media containing vehicle, or 10 uM BCN057 and were incubated for the following timepoints: 1 hr, 6 hr, 12 hr, 24 hrs. The Panc-1 cells were removed by gently scraping the cells from the thinsert.
Western Blot: Cells were harvested and lysed in cell lysis buffer on ice for 15 minutes and the lysate was centrifuged at 13,000 rpm at 4° C. for 10 minutes. The supernatant was transferred into a new tube for BCA protein quantification assay (Thermo Fisher Scientific) and the samples were normalized. 3× loading buffer (Cell Signaling) was added the protein sample and boiled for 5 minutes. […]

T1 sequence (P49841 whole entry): as above

Structure (SMILES): COc1ccc2cc(-c3nc4ccc(C)cn4c3NCc3ccco3)c(=O)[nH]c2c1 [BCN057, 3-[(Furan-2-ylmethyl)-amino]-2-(7-methoxy-2-oxo-1,2-dihydro-quinolin-3-yl)-6-methyl-imidazo[1,2-a]pyridin-1-ium]
- GSK3b phosphorylation at S-9 (GSK3b): rapid induction of phosphorylation at S-9
- GSK3b inhibition [1]: inhibition was noted
- Panc1 cells viability (Panc-1 cells; 48 hours, increasing doses of BCN057): significant decrease in Panc1 cells viability
- IC50 (Panc-1 cells; Homo sapiens, Panc-1, 72 hours post application, 2, 5, 10, 20 μM, Quest Graph IC50 Calculator): 1330 nM
- Cytotoxicity of combination of 5FU and BCN057 (Panc-1 cells; Panc1, 5FU 50 μM plus BCN057 2-20 μM, 24, 48 and 72 hrs): greater cytotoxicity than 5FU alone
- Tumor viability on addition of BCN057 to Oxaliplatin, Irinotecan and 5FU (Panc-1 cells; Panc-1, 10 μM each, over 72 hrs): general trend of decreasing tumor viability
- cytotoxicity toward the cells in the dose response curve (Panc-1 cells; Panc-1, 2-20 μM): potent cytotoxicity toward the cells at all concentrations
- Sensitivity to cytotoxic effect of 5FU, Irinotecan and Oxaliplatin in combination with BCN057 (Panc-1 cells; Panc-1, 24, 48 and 72 hours, all time points except Irinotecan and oxaliplatin at 72 hours): statistically significant sensitivity
- PDL-1 expression on Panc-1 cells [2]: not appreciably changed

From patent US20240376098A1, “METHODS OF TREATMENT USING BCN057, BCN077 AND ANALOGS” (BCN Biosciences L.L.C., priority 2021, published 2024)
